Results from US20260306640A1, “TECHNOLOGIES TARGETING CELL STATES” (Auron Therapeutics, Inc., priority 2023, published 2026).

Legend:
KAT2A = KAT2A (Homo sapiens, UniProt Q92830); experiment: Western blot of KAT2A level in neuroendocrine prostate cancer LASCPC-01 cells, 24 hours; format: cell-based; design: degrader, Western blot; settings: FIG. 3 (A)
Protocol: FIG. 3. Provided compounds can provide various activities. (A): Provided technologies can reduce KAT2A and KAT2B levels and histone acetylation levels. […] Cell viability (Cell Titer Glo) data relative to DMSO control after 7 days of treatment with compound 22 are presented as examples to confirm inhibition. GI50=5 nM. (C): Provided technologies can modulate cell states and induce differentiation. […] (D): Provided technologies can reduce KAT2A and KAT2B levels and histone acetylation levels including in neuroendocrine prostate cancer primary patient organoid. […] Concentrations are nM. […] Cell viability data relative to DMSO control after 21 days of treatment with compound 22 are presented as examples to confirm inhibition. GI50=3 nM. (F): Provided technologies can modulate cell states and induce differentiation.

[1] = test system: histone acetylation (e.g., AcH3K9); experiment: Histone H3K9 acetylation (AcH3K9), Western Blot, LASCPC-01 cells; format: cell-based; settings: FIG. 3
Protocol: In some embodiments, an assessment is performed using cells. In some embodiments, cells were treated with various compounds before assessing KAT2A and/or KAT2B levels, histone (e.g., H3K9) acetylation levels, cell states, growth, etc.
Western Blot: In some assessments, MOLM13, NCI-H1048, LASCPC-01 and NEPC organoid cells were treated with compounds at certain concentrations for certain periods of time, and cell pellets were lysed by adding 1-part 4×laemmli Sample buffer (e.g., Bio-Rad Catalog #1610747) along with Mercaptoethanol (e.g., Bio-Rad Catalog #1610710) according to manufacturer's instructions, and 1-part RIPA buffer with 2×protease and phosphatase inhibitor. The samples were sonicated 30% amplitude, 35 seconds on and 35 seconds off for 1 cycle and boiled at 95° C. for 5 minutes. 30-35 μL of samples were loaded on a 4-15% Criterion™ TGX Stain-Free™ Protein Gel (Bio-rad, 5678084). In some assessments, NCI-H1048 flash frozen tumor pieces were resuspended in RIPA buffer and homogenized on TissueLyser II with steel beads at 30 Hz for 3 minutes. Samples were then centrifuged at […] at 4° C. for 15 minutes. BCA protein determination was performed and samples normalized for 1.95 ug/uL. 19.5 uL were loaded and run on similar gels as cell pellets. […]

Chain of KAT2A (Q92830 whole entry): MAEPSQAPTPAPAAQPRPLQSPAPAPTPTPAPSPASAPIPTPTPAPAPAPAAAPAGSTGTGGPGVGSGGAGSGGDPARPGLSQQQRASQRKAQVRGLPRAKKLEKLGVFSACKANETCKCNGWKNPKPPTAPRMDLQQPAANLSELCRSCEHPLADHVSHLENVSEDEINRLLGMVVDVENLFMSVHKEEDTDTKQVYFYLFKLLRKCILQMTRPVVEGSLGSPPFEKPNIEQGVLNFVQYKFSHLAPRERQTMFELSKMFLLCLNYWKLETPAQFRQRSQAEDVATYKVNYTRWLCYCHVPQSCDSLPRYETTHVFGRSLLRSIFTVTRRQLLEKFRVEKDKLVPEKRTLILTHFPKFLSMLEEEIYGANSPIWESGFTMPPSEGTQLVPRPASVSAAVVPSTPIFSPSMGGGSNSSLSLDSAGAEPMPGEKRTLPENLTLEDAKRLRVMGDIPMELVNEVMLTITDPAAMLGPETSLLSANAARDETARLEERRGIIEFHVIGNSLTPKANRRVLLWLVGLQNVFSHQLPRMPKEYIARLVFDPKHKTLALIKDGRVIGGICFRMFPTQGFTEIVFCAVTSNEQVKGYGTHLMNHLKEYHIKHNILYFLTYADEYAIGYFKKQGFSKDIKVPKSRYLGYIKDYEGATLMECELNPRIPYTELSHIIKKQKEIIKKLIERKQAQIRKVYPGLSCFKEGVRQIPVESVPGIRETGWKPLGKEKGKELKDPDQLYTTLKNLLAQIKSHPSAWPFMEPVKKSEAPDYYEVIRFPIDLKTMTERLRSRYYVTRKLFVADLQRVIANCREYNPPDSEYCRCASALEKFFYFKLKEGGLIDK

## CN1C[C@H](Nc2cnn(C)c(=O)c2Br)C[C@H](c2ccc(C(=O)N3CCC(CN4CCN(c5ccc6c(c5)CN(C5CCC(=O)NC5=O)C6=O)CC4)CC3)cc2)C1 (stereo partly drawn) [Compound 22, 3-(5-(4-((1-(4-((3R,5R)-5-((5-bromo-1-methyl-6-oxo-1,6-dihydropyridazin-4-yl)amino)-1-methylpiperidin-3-yl)benzoyl)piperidin-4-yl)methyl)piperazin-1-yl)-1-oxoisoindolin-2-yl)piperidine-2,6-dione]
KAT2A
  reduction of KAT2A level: confirm such reduction
[1]
  histone acetylation (e.g., AcH3K9) levels: reduce histone acetylation (e.g., AcH3K9) levels
